Target: T1, BK (Clostridium acetobutylicum, UniProt Q45829)
T1 construct: made in house; host or cells: E. coli, crude cell extract (pZA33-0020-0021)
T1 sequence (Q45829 1-355): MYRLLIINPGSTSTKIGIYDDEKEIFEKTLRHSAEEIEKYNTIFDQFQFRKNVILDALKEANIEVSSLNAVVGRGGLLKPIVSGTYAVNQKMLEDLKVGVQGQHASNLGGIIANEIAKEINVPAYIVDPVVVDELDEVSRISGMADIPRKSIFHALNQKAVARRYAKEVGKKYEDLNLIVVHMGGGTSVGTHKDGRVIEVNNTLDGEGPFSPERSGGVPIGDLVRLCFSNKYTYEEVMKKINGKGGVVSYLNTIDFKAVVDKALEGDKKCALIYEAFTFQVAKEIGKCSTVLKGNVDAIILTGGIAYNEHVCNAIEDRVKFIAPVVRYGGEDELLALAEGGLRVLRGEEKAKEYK
Test: Butyrate kinase (BK) enzyme activity, butyrate to butyryl-phosphate
Type: biochemical, C. acetobutylicum
Conditions: extracts from cells containing pZA33-0020-0021
Experimental: The enzyme activity of PTB is measured in the direction of butyryl-CoA to butyryl-phosphate as described in Cary et al. J. Bacteriol. 170:4613-4618 (1988). It provides inorganic phosphate for the conversion, and follows the increase in free CoA with the reagent 5,5′-dithiobis-(2-nitrobenzoic acid), or DTNB. DTNB rapidly reacts with thiol groups such as free CoA to release the yellow-colored 2-nitro-5-mercaptobenzoic acid (TNB), which absorbs at 412 nm with a molar extinction coefficient of 14,140 M cm^−1. The assay buffer contained 150 mM potassium phosphate at pH 7.4, 0.1 mM DTNB, and 0.2 mM butyryl-CoA, and the reaction was started by addition of 2 to 50 μL cell extract. The enzyme activity of BK is measured in the direction of butyrate to butyryl-phosphate formation at the expense of ATP. The procedure is similar to the assay for acetate kinase previously described Rose et al., J. Biol. Chem. 211:737-756 (1954). However we have found another acetate kinase enzyme assay protocol provided by Sigma to be more useful and sensitive. […] The reaction was started by adding 2 to 50 μL cell extract, and the reaction was monitored based on the decrease in absorbance at 340 nm indicating NADH oxidation. […]

Molecule	specific activity of BK
BK: Butyrate kinase from C. acetobutylicum (gene 0021), native ptb/bk operon expressed in pZA33; cell extract (protein, listed as Clostridium acetobutylicum) MYRLLIINPGSTSTKIGIYDDEKEIFEKTLRHSAEEIEKYNTIFDQFQFRKNVILDALKEANIEVSSLNAVVGRGGLLKPIVSGTYAVNQKMLEDLKVGVQGQHASNLGGIIANEIAKEINVPAYIVDPVVVDELDEVSRISGMADIPRKSIFHALNQKAVARRYAKEVGKKYEDLNLIVVHMGGGTSVGTHKDGRVIEVNNTLDGEGPFSPERSGGVPIGDLVRLCFSNKYTYEEVMKKINGKGGVVSYLNTIDFKAVVDKALEGDKKCALIYEAFTFQVAKEIGKCSTVLKGNVDAIILTGGIAYNEHVCNAIEDRVKFIAPVVRYGGEDELLALAEGGLRVLRGEEKAKEYK	approximately 65 U/mg

Test system: aminotransferase from Leishmania mexicana
Test: not given
Conditions: activity considered 100% on tyrosine; cited from earlier work

Molecule	activity (substrate specificity)
N[C@@H](Cc1c[nH]c2ccccc12)C(=O)O [tryptophan]	85%
N[C@@H](Cc1ccc(O)cc1)C(=O)O [tyrosine]	100%
CSCC[C@H](N)C(=O)O [methionine]	25%
CC(C)C[C@H](N)C(=O)O [leucine]	25%
N[C@@H](Cc1ccccc1)C(=O)O [phenylalanine]	90%
